Measurements as given in PubChem BioAssay (NCI).
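Step 1: Grow cells in 96-well plates. Step 2: Expose to compound for 48 hours at 5 concentrations. Step 3: Interpolate endpoints linearly; if unreached, use highest concentration. TGI marks complete inhibition of growth.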

What was measured:
Assay in all cases: inhibition of tumour cell growth, NCI panel, 48 h
A498 renal = tested on: A498 renal
HS 578T breast = tested on: HS 578T breast
MCF7 breast = tested on: MCF7 breast
NCI/ADR-RES ovarian = tested on: NCI/ADR-RES ovarian
T-47D breast = tested on: T-47D breast

Nc1[nH]nc2c1Cc1c(n(Cc3ccc(Cl)cc3)c3ccccc13)C(=O)N2
TGI (A498 renal): 29.7 µM
TGI (HS 578T breast): 40.2 µM
TGI (MCF7 breast): 26.9 µM
TGI (NCI/ADR-RES ovarian): 44.6 µM
TGI (T-47D breast): 28.9 µM
